Where two headings read alike, the source gives them in different places.
Experiments:
[1] = system: human T4-lymphocyte cell line (CEM); experiment: growth inhibition of normal uninfected cells (CEM); type: cell-based; conditions: CCRF-CEM, read-out: IC50 (toxic concentration, 50% growth inhibition of normal uninfected cells)
Description: (§1) For their effects on HIV-induced cytopathogenicity in human T4 -lymphocyte cell line (CEM), the compounds of the present invention were evaluated according to NIH procedures as described by R. Vince et al., Biochem. Biophys.Res.Comm., 156, 1046, 1988 and by O. S. Weislow et al. J. Natl.Canc. Inst., 81. 577,1988.
b) the inhibitory concentration 50% (IC50) which represents the toxic concentration of drug resulting in 50% growth inhibition of normal uninfected cells.
(§2) The methods, the test conditions, the evaluation criteria of the anti-HIV activity in vitro are described by Weislow, O. W., Kieser, R., Fine, D., Bader, J., Shoemaker, R. H., Boyd, M. R.: New soluble-formazan assay for HIV-1 cytopathic effects: application to high-flux screening of synthetic and natural products for AIDS-antiviral activity. J. Nati, Cancer Inst. 81:577-586,1989.

[2] = system: HIV; experiment: HIV-induced cytopathogenicity in human T4-lymphocyte cell line (CEM); type: cell-based; conditions: for EC50: Human immunodeficiency virus 1, CCRF-CEM, read-out: EC50 (50% reduction of the viral cytopathic effect); for TI50 (therapeutic index): IC50/EC50 ratio
Description: as §1
It was possible to evaluate for many compounds of the invention:
a) the effective concentration 50% (EC50), which represents the concentration of the tested compound resulting in 50% reduction of the viral cytopathic effect.
c) the therapeutic index TI50 which is determined as the IC50 /EC50 ratio.
Only substances able to cause at least a 50% or greater reduction of viral cytopathic effect are kept in consideration for further investigation.
as §2

[3] = relative lipophylia (RM) by reverse phase thin layer chromatography; type: physicochemical; conditions: rp-tlc, acetone/water 2:1
Description: The lipophylic character of the synthesized compounds was evaluated with reverse phase, thin layer chromatography.
The non-polar stationary phase is represented by plates of Merck 60 F254 silanized silica gel, whereas the polar phase consists of an acetone/water mixture (2:1).
The compounds were solubilized in chloroform (3 mg/ml).
The RM values were calculated from the average experimental values of RF, obtained from three chromatograms using the formula: […]
Higher values of RM corresponding to lower values of RF indicate more lipophylic compounds.

[4] = silanized silica gel Merck 60 F254 plates, average of three chromatograms, read-out: RM (relative lipophylia)

Structure (SMILES)	chromatographic logP [3]	further results
Oc1cccc(C2SCc3nc4ccccc4n32)c1 (stereo not shown) [XVII]	-0.591	IC50 ([1]; uninfected CEM cells): 127 µM; EC50 ([2]; HIV-infected CEM cells): 114 µM; TI50 (therapeutic index) [2]: 1.11
Clc1cc(Cl)cc(C2SCc3nc4ccccc4n32)c1 (stereo not shown) [XXVIII]		chromatographic logP [3, 4]: -0.337
O=[N+]([O-])c1cc(C2SCc3nc4ccccc4n32)ccc1Cl (stereo not shown) [XXXI]	-0.414	
Clc1ccc(C2SCc3nc4ccccc4n32)cc1Cl (stereo not shown) [XXVII]	-0.362	
COc1cccc(C2SCc3nc4ccccc4n32)c1 (stereo not shown) [XII]	-0.436	
Fc1ccc(C2SCc3nc4ccccc4n32)c(F)c1 (stereo not shown) [XX]	-0.452	
Cc1cccc(C2SCc3nc4ccccc4n32)c1 (stereo not shown) [XI]	-0.399	
COc1ccc(C2SCc3nc4ccccc4n32)cc1 (stereo not shown) [XIII]	-0.477	
Clc1ccccc1C1SCc2nc3ccccc3n21 (stereo not shown) [VII]	-0.393	
Fc1ccccc1C1SCc2nc3ccccc3n21 (racemic) [IV, (±) 1-(2-fluorophenyl)-1H,3H-thiazole [3,4-a] benzimidazole]	-0.468	IC50 ([1]; uninfected CEM cells): > 126 µM; EC50 ([2]; HIV-infected CEM cells): 7.63 µM; TI50 (therapeutic index) [2]: > 16.5
Clc1cccc(C2SCc3nc4ccccc4n32)c1Cl (stereo not shown) [XXIV]	-0.355	
Brc1cccc(C2SCc3nc4ccccc4n32)c1 (stereo not shown) [II]	-0.406	
Brc1ccc(C2SCc3nc4ccccc4n32)cc1 (stereo not shown) [III]	-0.43	
Fc1ccc(C2SCc3nc4ccccc4n32)cc1F (stereo not shown) [XXIII]	-0.43	
Fc1ccc(C2SCc3nc4ccccc4n32)cc1 (stereo not shown) [VI]	-0.412	
Fc1cccc(F)c1C1SCc2nc3ccccc3n21 (racemic) [XXII, (±) 1-(2,6-difluorophenyl)-1H,3H-thiazole [3,4-a] benzimidazole]		IC50 [1]: 80 µM; EC50 [2]: 1 µM; TI50 (therapeutic index) [2]: 80; chromatographic logP [3, 4]: -0.475
FC(F)(F)c1cccc(C2SCc3nc4ccccc4n32)c1 (stereo not shown) [XV]	-0.378	

Structure (SMILES)	chromatographic logP [3]	further results
Cc1ccccc1C1SCc2nc3ccccc3n21 (stereo not shown) [X]	-0.452	
Fc1cccc(C2SCc3nc4ccccc4n32)c1 (racemic) [V, (±) 1-(3-fluorophenyl)-1H,3H-thiazole [3,4-a] benzimidazole]	-0.434	IC50 ([1]; uninfected CEM cells): 67.4 µM; EC50 ([2]; HIV-infected CEM cells): 5.74 µM; TI50 (therapeutic index) [2]: 11.8
O=[N+]([O-])c1ccccc1C1SCc2nc3ccccc3n21 (stereo not shown) [XXXVI, 1-(2-nitro-phenyl)-1H,3H-thiazole [3,4-a] benzimidazole]		IC50 ([1]; uninfected CEM cells): 37.2 µM; EC50 ([2]; HIV-infected CEM cells): 17.2 µM; TI50 (therapeutic index) [2]: 2.16
N#Cc1cccc(C2SCc3nc4ccccc4n32)c1 (stereo not shown) [XXXIII, 1-(3-cyano-phenyl)-1H,3H-thiazole [3,4-a] benzimidazole]		IC50 ([1]; uninfected CEM cells): 38.3 µM; EC50 ([2]; HIV-infected CEM cells): 2.94 µM; TI50 (therapeutic index) [2]: 13.1
N#Cc1ccc(C2SCc3nc4ccccc4n32)cc1 (stereo not shown) [XVIII]	-0.506	
FC(F)(F)c1ccccc1C1SCc2nc3ccccc3n21 (stereo not shown) [XIV]	-0.349	
Clc1cccc(Cl)c1C1SCc2nc3ccccc3n21 (racemic) [XXVI, (±) 1-(2,6-dichlorophenyl)-1H,3H-thiazole [3,4-a] benzimidazole]	-0.402	IC50 ([1]; uninfected CEM cells): 22.3 µM; EC50 ([2]; HIV-infected CEM cells): 0.257 µM; TI50 (therapeutic index) [2]: 86.8
Clc1ccc(C2SCc3nc4ccccc4n32)cc1 (stereo not shown) [IX]	-0.402	
Clc1cccc(C2SCc3nc4ccccc4n32)c1 (stereo not shown) [VIII]	-0.428	
Clc1ccc(C2SCc3nc4ccccc4n32)c(Cl)c1 (stereo not shown) [XXV]	-0.329	
Fc1cccc(C2SCc3nc4ccccc4n32)c1F (stereo not shown) [XIX]	-0.452	
O=[N+]([O-])c1ccc(Cl)cc1C1SCc2nc3ccccc3n21 (racemic) [XXXII, (±) 1-(2-nitro-5-chlorophenyl)-1H,3H-thiazole [3,4-a] benzimidazole]	-0.387	
Brc1ccccc1C1SCc2nc3ccccc3n21 (stereo not shown) [I]	-0.41	
O=[N+]([O-])c1ccc(Cl)c(C2SCc3nc4ccccc4n32)c1 (stereo not shown) [XXX]	-0.423	IC50 ([1]; uninfected CEM cells): > 54.4 µM; EC50 ([2]; HIV-infected CEM cells): 15.9 µM; TI50 (therapeutic index) [2]: > 3.42
FC(F)(F)c1ccc(C2SCc3nc4ccccc4n32)cc1 (stereo not shown) [XVI]	-0.387	
Fc1cccc(Cl)c1C1SCc2nc3ccccc3n21 (racemic) [XXIX, (±) 1-(2-chloro-6-fluorophenyl)-1H,3H-thiazole [3,4-a] benzimidazole]	-0.452	IC50 ([1]; uninfected CEM cells): 19.6 µM; EC50 ([2]; HIV-infected CEM cells): 0.596 µM; TI50 (therapeutic index) [2]: 32.8
